We go through nine compounds from PubChem BioAssay (NCI).

Among the test systems are 786-0 renal; A498 renal; A549 NSCLC; EKVX NSCLC; HL-60(TB) leukemia; HOP-62 NSCLC; HOP-92 NSCLC; KM12 colon; NCI-H522 lung; OVCAR-5 ovarian; OVCAR-8 ovarian; RPMI-8226 leukemia; RXF 393 renal; SK-MEL-5 melanoma; SN12C renal; UO-31 renal; COLO 205 colon.
What all share (test): NCI anticancer screen, dose series, 48 h

SMILES strings stand for the structures.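 Tested at 5 concentrations; 48 h exposure; 96-well plates; endpoints linearly interpolated, else capped at highest concentration. Definition used: TGI = concentration required for complete inhibition of growth.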

Take `CC(C)(C)OC(=O)NC(CCC(=O)OCc1ccccc1)C(=O)NCCCO` (stereo not drawn): the TGI with 786-0 renal, in the assay with A498 renal, in the assay with A549 NSCLC, with EKVX NSCLC, in the assay on HL-60(TB) leukemia and with HOP-62 NSCLC was above 100 µM each time. Besides, the TGI in the assay on HOP-92 NSCLC, in the assay with KM12 colon, with NCI-H522 lung, with OVCAR-5 ovarian, with OVCAR-8 ovarian and in the assay on RPMI-8226 leukemia was above 100 µM throughout. Moreover, the TGI in the assay on RXF 393 renal, with SK-MEL-5 melanoma, in the assay on SN12C renal and with UO-31 renal was above 100 µM each time.
On to `COc1ccc2c(c1)Oc1cc(O)ccc1[C@@H]2c1ccccc1C(=O)NC(C)c1ccccc1` (stereo partly drawn), for which the TGI came out at 27.9 µM in the assay with 786-0 renal; 32.1 µM with A498 renal; 42.5 µM in the assay on A549 NSCLC; 32.9 µM in the assay with COLO 205 colon; 31.5 µM in the assay with EKVX NSCLC; 34.5 µM in the assay on HL-60(TB) leukemia. In addition, the TGI was 35.8 µM in the assay on HOP-62 NSCLC; 33.9 µM with KM12 colon; 33.4 µM in the assay with NCI-H522 lung; 30.5 µM in the assay with OVCAR-5 ovarian; 46.7 µM in the assay on OVCAR-8 ovarian; 39.1 µM in the assay with RPMI-8226 leukemia. Further, the TGI with RXF 393 renal stood at 29.9 µM; in the assay with SK-MEL-5 melanoma, 32.2 µM; with SN12C renal, 28.6 µM; in the assay on UO-31 renal, 34.1 µM.
Take `CCOC(=O)/C(=C\c1cccs1)P(=O)(OCC)OCC`: the TGI in the assay on 786-0 renal was 47.2 µM; in the assay on A549 NSCLC it was 50.8 µM; in the assay on COLO 205 colon, 30.4 µM; in the assay on EKVX NSCLC, 60.3 µM; in the assay with HL-60(TB) leukemia, 73.3 µM; with HOP-62 NSCLC it was above 100 µM. The TGI in the assay on HOP-92 NSCLC was 84.5 µM; in the assay with KM12 colon it was 31.4 µM; with NCI-H522 lung, 28.4 µM; in the assay with OVCAR-5 ovarian it was 45.8 µM; in the assay with OVCAR-8 ovarian, 77.2 µM; in the assay with RPMI-8226 leukemia, 77.1 µM. For the same compound, the TGI in the assay on RXF 393 renal is 29.4 µM; with SK-MEL-5 melanoma it was 31.6 µM; with SN12C renal, 45.9 µM; in the assay with UO-31 renal it was 36.1 µM.
`NC1CC(Cl)c2c(Cl)sc(Cl)c21` (stereo not drawn): the TGI in the assay on 786-0 renal, with A498 renal, in the assay with A549 NSCLC, in the assay with COLO 205 colon, in the assay with EKVX NSCLC and with HL-60(TB) leukemia was above 100 µM each time. The TGI is above 100 µM in the assay on HOP-62 NSCLC; above 100 µM in the assay on HOP-92 NSCLC; above 100 µM in the assay on KM12 colon; 0.049 µM in the assay on NCI-H522 lung; above 100 µM with OVCAR-5 ovarian; above 100 µM with OVCAR-8 ovarian. Besides, the TGI in the assay with RXF 393 renal, in the assay on SK-MEL-5 melanoma, in the assay with SN12C renal and in the assay with UO-31 renal was above 100 µM in each case.
Take `CN(C(=O)C1CCCCCC1=O)c1ccccc1Cl` (stereo not drawn): the TGI in the assay with 786-0 renal, in the assay with A498 renal, with A549 NSCLC, in the assay with COLO 205 colon, in the assay on EKVX NSCLC and in the assay with HOP-62 NSCLC was above 100 µM in each case. Besides, the TGI with HOP-92 NSCLC, with KM12 colon, in the assay on NCI-H522 lung, in the assay with OVCAR-5 ovarian, in the assay with OVCAR-8 ovarian and in the assay on RPMI-8226 leukemia was above 100 µM in each case. The TGI in the assay on RXF 393 renal, with SK-MEL-5 melanoma, in the assay with SN12C renal and with UO-31 renal was above 100 µM throughout.
With `COc1cc(C(O)C(=O)c2nc3ccc([N+](=O)[O-])cc3[nH]c2=O)ccc1O` (stereo not drawn), the TGI in the assay with 786-0 renal was above 100 µM; with A498 renal it was 97 µM; with A549 NSCLC it was above 100 µM; in the assay on COLO 205 colon it was above 100 µM; in the assay with EKVX NSCLC, above 100 µM; in the assay on HL-60(TB) leukemia, above 100 µM. Also, the TGI in the assay with HOP-62 NSCLC, in the assay with KM12 colon, with NCI-H522 lung, in the assay on OVCAR-5 ovarian, in the assay on OVCAR-8 ovarian and with RPMI-8226 leukemia was above 100 µM throughout. In addition, the TGI in the assay on SK-MEL-5 melanoma, in the assay on SN12C renal and in the assay with UO-31 renal was above 100 µM throughout.
As to `CC(C)(CN1CCCCC1)C(=O)/C=C/c1ccc(Cl)cc1`, the TGI with 786-0 renal is 9.68 µM; in the assay on A498 renal, 10.8 µM; in the assay on A549 NSCLC, 14.4 µM; in the assay with COLO 205 colon it was 17.5 µM; with EKVX NSCLC it was 10 µM; in the assay with HL-60(TB) leukemia, 4.8 µM. Besides, the TGI in the assay with HOP-92 NSCLC is 4.64 µM; in the assay on KM12 colon, 11.2 µM; with NCI-H522 lung, 9.9 µM; with OVCAR-5 ovarian, 23.5 µM; in the assay with OVCAR-8 ovarian, 5.51 µM; in the assay with RPMI-8226 leukemia, 10.1 µM. In addition, the TGI in the assay with RXF 393 renal came to 13.8 µM; in the assay on SK-MEL-5 melanoma, 15.1 µM; in the assay with SN12C renal, 7.24 µM; in the assay with UO-31 renal, 20.2 µM.
On to `CC1=NN(C(=O)CC(=O)NC(=O)CC(=O)Nc2ccccc2F)C(=O)C1N=Nc1ccc([N+](=O)[O-])cc1` (stereo not drawn), for which the TGI was 64.6 µM in the assay on 786-0 renal; 94.8 µM with A498 renal; 86.2 µM in the assay on A549 NSCLC; 69.2 µM in the assay on COLO 205 colon; 96.2 µM in the assay on EKVX NSCLC; above 100 µM with HOP-62 NSCLC. Besides, the TGI in the assay on HOP-92 NSCLC is above 100 µM; in the assay on KM12 colon it was above 100 µM; in the assay on OVCAR-5 ovarian, above 100 µM; with OVCAR-8 ovarian it was above 100 µM; with RPMI-8226 leukemia it was 46.3 µM; in the assay on SK-MEL-5 melanoma, above 100 µM. Further, the TGI was above 100 µM in the assay with SN12C renal and 84.2 µM in the assay on UO-31 renal.
Turning to `O=S(Nc1ccccc1)c1ccc(Cl)c(Cl)c1` (stereo not drawn), the TGI in the assay with 786-0 renal is above 100 µM; in the assay on A549 NSCLC, above 100 µM; in the assay on COLO 205 colon, above 100 µM; with EKVX NSCLC it was above 100 µM; in the assay with HL-60(TB) leukemia, above 100 µM; in the assay with HOP-62 NSCLC it was 79.1 µM. Further, the TGI is 33.1 µM in the assay with KM12 colon; above 100 µM with NCI-H522 lung; above 100 µM with OVCAR-8 ovarian; above 100 µM with RPMI-8226 leukemia; 62.5 µM with SK-MEL-5 melanoma; above 100 µM in the assay on SN12C renal. Also, in the assay on UO-31 renal, the TGI is above 100 µM.
